Data published in patent US20240307309A1, “ZWITTERIONIC LIPID NANOPARTICLE COMPOSITIONS, AND METHODS OF USE” (CORNELL UNIVERSITY, priority 2020, published 2024).

Test: Accelerated blood clearance (ABC) effect, hEPO serum PK after multiple LNP injections (ELISA)
Format: in vivo, C57BL/6J mice
Details: PCB-LNP containing the lipid; intravenous, 5 μg mRNA; third injection; compared to MC3 formulations
Experimental: Accelerated blood clearance (ABC) effect has been reported in cases where LNPs were injected multiple times with rapid clearance of LNPs observed in the subsequent injections. […] In this example, PCB-LNP containing ZW-B-CBn from Example 7 were used to study the ABC effect of LNPs. MC3-based PEG-LNP from Example 2 was used as a control.
For in vivo pharmacokinetic (PK) study, male C57BL/6J mice aged 3-4 weeks in groups of three were administered intravenously with mRNA-LNP at a dosage of 5 μg of mRNA. Two different injection cohorts were performed. (FIG. 15a) In cohort 1, only one dose of hEPO-mRNA (human erythropoietin mRNA) was given. In cohort 2, Fluc-mRNA ([…]) was dosed for the first two injections, and hEPO-mRNA for the last injection. (FIG. 15a) Cohort 2 was designed in a way to eliminate anti-hEPO immune response induced from first two injections, and thereby the PK profile of hEPO in the third injection is mainly indicating the ABC effect due to LNP components. To determine the PK profile of hEPO, mice sera were collected at 6-hour, 24-hour post-injection, and analyzed using ELISA (DuoSet, hEPO ELISA kit, R&D).

Row | ABC effect (hEPO serum concentration, injection cohort 2 versus cohort 1) | Compound
1 | less ABC effect | CCCCCCCCCOC(=O)CCCCCCCN(CCCCCCCC(=O)OC(CCCCCCCC)CCCCCCCCC)CC(=O)O (centres unmarked) [ZW-B-CB1, N-(8-(nonyloxy)-8-oxooctyl)-N-(8-(octadecan-9-yloxy)-8-oxooctyl)glycine]
2 | less ABC effect | CCCCCCCCCOC(=O)CCCCCCCN(CCCCCCCC(=O)OC(CCCCCCCC)CCCCCCCCC)CCC(=O)O (centres unmarked) [ZW-B-CB2, 3-((8-(nonyloxy)-8-oxooctyl)(8-(octadecan-9-yloxy)-8-oxooctyl)amino)propanoic acid]
